The values below are quoted from earlier work in patent US20040102473A1, “Method of preventing or treating atherosclerosis or restenosis” (priority 2002, published 2004).

In the data set the test system is CMV. The conditions noted are these: DHPG prophylaxis, Lemstrom et al., Circulation 1994.

Regarding `Nc1nc(O)c2ncn(COC(CO)CO)c2n1` [Ganciclovir], the “prevention of atherosclerosis resulting from CMV infection of rats” value is “prevent atherosclerosis”.
